Laboratory results as given in patent US20150342954A1, “2-BENZYL, 3-(PYRIMIDIN-2-YL) SUBSTITUTED PYRAZOLES USEFUL AS SGC STIMULATORS” (IRONWOOD PHARMACEUTICALS, INC., priority 2011, published 2015).
Where two headings read alike, the source gives them in different places.

Tests used:
[1] = molecular target: T1, Human soluble guanylate cyclase enzyme (hsGC) (Homo sapiens, UniProt Q02108+Q02153); experiment: Purified human sGC enzyme synergy assay in the presence of 1 μM sodium nitroprusside (SNP); assay type: biochemical; conditions: compound at 30 μM, presence of 1 μM SNP; Table 5B
T1 construct: purchased Enzo Inc. ALX-201-177
T1 sequence (Q02153 1-619): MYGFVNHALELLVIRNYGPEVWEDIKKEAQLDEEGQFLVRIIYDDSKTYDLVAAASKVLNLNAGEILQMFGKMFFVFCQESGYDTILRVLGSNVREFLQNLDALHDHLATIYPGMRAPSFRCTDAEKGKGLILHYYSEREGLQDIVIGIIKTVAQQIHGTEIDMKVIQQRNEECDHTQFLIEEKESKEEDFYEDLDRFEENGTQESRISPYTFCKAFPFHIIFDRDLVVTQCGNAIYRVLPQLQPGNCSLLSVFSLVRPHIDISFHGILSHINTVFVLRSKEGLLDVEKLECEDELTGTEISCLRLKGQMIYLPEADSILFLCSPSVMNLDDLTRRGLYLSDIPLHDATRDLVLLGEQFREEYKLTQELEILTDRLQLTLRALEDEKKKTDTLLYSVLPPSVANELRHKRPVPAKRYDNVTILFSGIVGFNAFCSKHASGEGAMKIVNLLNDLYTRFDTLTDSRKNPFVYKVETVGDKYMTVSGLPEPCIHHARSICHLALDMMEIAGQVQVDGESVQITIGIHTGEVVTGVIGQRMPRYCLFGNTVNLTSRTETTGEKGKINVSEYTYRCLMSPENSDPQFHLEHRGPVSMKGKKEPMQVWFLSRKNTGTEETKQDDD
T1 sequence (Q02108 1-690): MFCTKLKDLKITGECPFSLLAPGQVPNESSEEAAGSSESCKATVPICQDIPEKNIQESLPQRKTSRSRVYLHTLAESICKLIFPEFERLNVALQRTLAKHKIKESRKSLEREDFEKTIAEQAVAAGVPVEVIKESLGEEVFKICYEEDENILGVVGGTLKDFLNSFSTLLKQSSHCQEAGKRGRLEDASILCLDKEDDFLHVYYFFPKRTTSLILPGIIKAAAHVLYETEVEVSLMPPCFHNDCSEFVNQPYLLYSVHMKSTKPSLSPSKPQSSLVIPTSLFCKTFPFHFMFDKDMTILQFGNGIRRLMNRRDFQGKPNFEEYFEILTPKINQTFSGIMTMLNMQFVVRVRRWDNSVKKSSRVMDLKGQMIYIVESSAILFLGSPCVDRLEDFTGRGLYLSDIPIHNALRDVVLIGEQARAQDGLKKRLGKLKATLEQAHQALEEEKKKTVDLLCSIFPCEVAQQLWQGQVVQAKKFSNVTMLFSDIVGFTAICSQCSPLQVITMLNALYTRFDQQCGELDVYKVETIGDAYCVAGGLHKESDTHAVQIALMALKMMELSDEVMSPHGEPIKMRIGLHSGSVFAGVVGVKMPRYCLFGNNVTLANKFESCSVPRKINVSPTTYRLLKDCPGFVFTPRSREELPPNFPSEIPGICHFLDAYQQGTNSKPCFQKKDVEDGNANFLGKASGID
Method: (§1) Human soluble guanylate cyclase enzyme (hsGC) obtained from Enzo Inc. (P/N: ALX-201-177) was used to evaluate the activity of test compounds. The assay reactions contained 0.1 M Tris (pH 8.0), 0.5 mg/mL BSA (pH 8.0), 2 mM DTT, 2 mM MgCl2, 300 μM GTP, 1 mM 3-isobutyl-1-methylxanthine (IBMX) and 5 ng human soluble guanylate cyclase enzyme. Test compounds in DMSO were then added (2 μL, 10 or 30 μM final concentration) and incubated (200 μL, 96-well plate format) at 37° C. for 30 minutes. The controls were carried out using 2 μL DMSO. After the 30 minute incubation, the reaction was stopped with the addition of 200 μl of cold methanol. The plate was then centrifuged at 3,200 rpm for 10 minutes at room temperature. Supernatants (200 μL) were collected and transferred to a new 96 well plate for analysis.
(§2) An 8 point cGMP (Sigma-Aldrich P/N: G6129) standard curve was prepared in assay buffer ranging from 0.156-20 μM. Samples for the cGMP standard curve were then diluted with an equal volume of methanol resulting in final cGMP concentrations of 0.078-10 μM.
(§3) The cGMP standard curve was generated using GraphPad Prism Software.
(§4) Calculations: Specific Activity was determined by the amount of cGMP formed (nmoles) per mg of sGC per min. Enzyme “fold-change” was calculated by dividing Specific Activity for test compounds by Specific Activity of DMSO controls.
Biological Measurement by the Purified Human sGC Enzyme Synergy Performed in the Presence of Sodium Nitroprusside (SNP), a Nitric Oxide Donor
Enzyme assays were performed as described above, but was done in the absence or presence of 1 μM sodium nitroprusside (SNP).

[2] = molecular target: T2, soluble guanylate cyclase (sGC) (Homo sapiens, UniProt Q02108+Q02153); experiment: sGC-HEK-cGMP assay (run with SNP incubation); assay type: cell-based; conditions: for Emax: Table 3B, 10 μM SNP, 100% = 30 μM BAY 41-2272 with 10 μM SNP, read-out: HEK assay Emax-unconstrained (Percent); for HEK MEC-10: concentration that would elicit 10% of the Emax in the presence of 10 μM SNP; for HEK MEC-10 / EC50: Table 3E; for EC50: in the presence of 10 μM SNP
T2 construct: endogenously expressing soluble guanylate cyclase (sGC); endogenous in cells; host or cells: HEK293
T2 sequence (Q02153 1-619): T1 sequence (Q02153 1-619)
T2 sequence (Q02108 1-690): T1 sequence (Q02108 1-690)
Outline: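 HEK293 cells with endogenous sGC were pre-treated 15 min at 37 °C with 0.5 mM IBMX, then exposed to test compound plus sodium nitroprusside for 10 min at 37 °C. Cells were lysed in 0.1 M HCl (4 °C, 30 min), and cGMP was quantified by LC/MS against a standard curve. EC50 values came from concentration-response curves.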

[3] = molecular target: T1, Human soluble guanylate cyclase enzyme (hsGC); experiment: Purified human sGC enzyme activity assay (without SNP); assay type: biochemical; conditions: compound at 30 μM, absence of SNP; fold over DMSO control; Table 5B
Method: Biological Activity Measurements by the Purified Human sGC Enzyme Activity Assay
as §1, §2, §3, §4

[4] = top of concentration-response curve not fitted to 100%
[5] = top of concentration-response curve not fitted to 100%, read-out: HEK assay EC50-unconstrained

Structure (SMILES) | Enzyme Activity (increase at 30 μM with SNP) [1] | Emax [2, 4] [%] | HEK MEC-10 [2] | EC50 ([2]; read-out: HEK assay EC50) [µM] | EC50 [2, 5] [µM] | Enzyme Activity (increase at 30 μM without SNP) [3]
Nc1ccnc(-c2cc(-c3ccon3)n(Cc3ccc(F)cc3F)n2)n1 [Compound 71] | D (10 or <20 fold increase) | 60 to 80 | C (0.1 to <1 μM) | 60 to 100 | 1 to 5 | A (no increase to <2 fold increase)
O=c1[nH]c(-c2cc(-c3ccon3)n(Cc3cc(F)ccc3F)n2)ncc1F [Compound 72] | D (10 or <20 fold increase) | 40 to 60 | B (0.01 to <0.1 μM) | 40 to 60 | 0.01 to 0.5 | D (10 or <20 fold increase)
Nc1ccnc(-c2cc(-c3ccon3)n(Cc3cc(F)ccc3F)n2)n1 [Compound 73] | D (10 or <20 fold increase) | 60 to 80 | C (0.1 to <1 μM) | 60 to 100 | 0.5 to 1 | D (10 or <20 fold increase)
N#Cc1cc(-c2ncc(F)c(=O)[nH]2)nn1Cc1ccccc1F [Compound 74] | C (5 to <10 fold increase) | 40 to 60 | C (0.1 to <1 μM) | 40 to 60 | 1 to 5 | B (2 to <5 fold increase)
O=c1[nH]c(-c2cc(-c3ncon3)n(Cc3cc(F)ccc3F)n2)ncc1F [Compound 75] | C (5 to <10 fold increase) | 40 to 60 | C (0.1 to <1 μM) | 40 to 60 | 1 to 5 | B (2 to <5 fold increase)
Oc1nc(-c2cc(-c3ccon3)n(Cc3cccc(F)c3F)n2)ncc1Cl [Compound 76] | E (20 to 30 fold increase) | 80 to 100 | B (0.01 to <0.1 μM) | 60 to 100 | 0.01 to 0.5 | D (10 or <20 fold increase)
O=c1[nH]c(-c2cc(-c3ccon3)n(Cc3cccc(Cl)c3F)n2)ncc1F [Compound 77] | E (20 to 30 fold increase) | 60 to 80 | C (0.1 to <1 μM) | 60 to 100 | 0.01 to 0.5 | C (5 to <10 fold increase)
Nc1ccnc(-c2cc(-c3ccon3)n(Cc3cccc(Cl)c3F)n2)n1 [Compound 78] | E (20 to 30 fold increase) | 80 to 100 | B (0.01 to <0.1 μM) | 60 to 100 | 0.5 to 1 | C (5 to <10 fold increase)
O=c1[nH]c(-c2cc(-c3ccon3)n(Cc3ccccc3F)n2)nc(CF)c1F [Compound 79] | D (10 or <20 fold increase) | 40 to 60 | D (1 to <10 μM) | 40 to 60 | 5 to 10 | B (2 to <5 fold increase)
CC(=O)Nc1cnc(-c2cc(-c3ccon3)n(Cc3cccc(F)c3F)n2)nc1N [Compound 80] | E (20 to 30 fold increase) | 40 to 60 | C (0.1 to <1 μM) | 40 to 60 | 0.01 to 0.5 | D (10 or <20 fold increase)
O=c1ccnc(-c2cc(-c3ccon3)n(Cc3cccc(Cl)c3F)n2)[nH]1 [Compound 81] | D (10 or <20 fold increase) | 40 to 60 | C (0.1 to <1 μM) | 40 to 60 | 1 to 5 | C (5 to <10 fold increase)
Oc1ccnc(-c2cc(-c3ccon3)n(Cc3cccc(F)c3F)n2)n1 [Compound 84] | D (10 or <20 fold increase) | 60 to 80 | B (0.01 to <0.1 μM) | 60 to 100 | 1 to 5 | C (5 to <10 fold increase)
O=c1[nH]c(-c2cc(-c3ccon3)n(Cc3ccccc3F)n2)nc(F)c1C(F)(F)F [Compound 85, 6-fluoro-2-(1-(2-fluorobenzyl)-5-(isoxazol-3-yl)-1H-pyrazol-3-yl)-5-(trifluoromethyl)pyrimidin-4(3H)-one] | E (20 to 30 fold increase) | 40 to 60 | – | – | 0.01 to 0.5 | C (5 to <10 fold increase)
Cc1cccc(Cn2nc(-c3ncc(F)c(O)n3)cc2-c2ccon2)c1F [Compound 86] | D (10 or <20 fold increase) | 60 to 80 | – | – | 1 to 5 | C (5 to <10 fold increase)
